Experiment [1] addresses T1, RbAp48 (Homo sapiens, UniProt Q09028). The experiment is described as follows: Pull-down with peptides immobilized on DBCO beads from MDA-MB-231 nuclear lysate. The experiment is classed as binding. Also noted: RbAp48 was pulled down from nuclear lysate of MDA‐MB‐231 cells; endogenous in cells; host or cells: MDA-MB-231 nuclear lysate. Particulars: 60 µM probe immobilized on DBCO beads, 1.5 h at 4°C, immunoblot. The protocol:
To evaluate whether peptide 33 interacts with RbAp48 in a more complex biological environment we modified the N‐terminus with a linker bearing a terminal azide (47, see Table 1, supplemental Figure 4). The peptides were immobilized on DBCO‐beads via copper‐free click chemistry and exposed to MDA‐MB‐231 nuclear lysate. As a negative control an azide modified scrambled peptide sequence (48) with affinity >10 μM was used.
Nuclear lysate of MDA-MB-231 cells was prepared using a Subcellular Protein Fractionation Kit (Thermo Scientific) according to the manufacturer’s instructions. DBCO agarose beads (100 µl) were washed with buffer A ( 50 mM Tris-HCl, 150 mM NaCl, 1 mM DTT, 1% (v/v) Triton X -100, pH 7.4, cOmplete™ EDTA-free Protease Inhibitor Cocktail ) three times. The beads were incubated overnight at 4°C in a solution containing either 47, 48 or no probe (500 µl containing 60 µM probe). After immobilization, the beads were washed again with buffer A three times followed by incubation with the nuclear lysate (500 µl) and incubated for 1.5 h at 4°C. After incubat ion beads were washe d with buffer B (50 mM Tris-HCl, 500 mM NaCl, 1 mM DTT, 1% (v/v) Triton X -100, pH 7.4, cOmplete™ EDTA - free Protease Inhibitor Cocktail ) three times. Protein was eluted by adding SDS sample buffer and loaded the mixture directly on SDS -page gel for analysis. […]
For orientation: Immunoblotting shows a protein as a band on a membrane.

Experiment [2] addresses T1, RbAp48. Briefly: Competitive fluorescence polarization (FP) assay using complex of peptide 1 and RbAp48. Details: Full length RbAp48 was cloned; His tag followed by 3C cleavage site (N, cleaved yes); made in house; host or cells: Sf9 insect cells. The experiment is classed as binding. Put shortly: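 Sf9-expressed full-length RbAp48 (tag cleaved), 15 nM, displaced from 1 nM fluorescent peptide tracer in 20 mM Tris-HCl pH 7.5, 150 mM NaCl, 0.01% Tween-20. Read by FP (ex 485/em 535 nm) after 30 min at room temperature.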
(Polarisation of emitted light reports the rotation of a fluorescent probe.)

The subject of the next experiment is U2OS cells. The experiment is described as follows: Morphological cell painting assay. It is filed as cell-based. The settings on record: U2OS cells, 20 h, 579 parameters, fraction of significantly changed parameters vs DMSO; 10, 3 or 1 µM. The source says:
Encouraged by the promising results from the pulldown experiment, and in order to get insight into bioactivity and possible mode of action, we analyzed peptide 33 in a morphological cell painting assay. The cell painting assay is a target agnostic assay which determines a cells morphological profile after treatment with a compound of interest and compares it to the profiles of a set of reference compounds. ^[22] By identifying reference compounds with a similar profile a hypothesis of the compounds mode of action can be generated based on their annotated targets. ^[23] U2OS cells were treated with our compound and 579 parameters were analyzed. […] We therefore synthesized a variant modified with an N‐terminal TAT sequence to enhance its permeability (compound 49, see Table 1 and Supplemental Figure 4). ^[24] […] Applying compound 49 to the cell painting assay led to an induction of 5.9 % and the corresponding profile was compared to the set of 3000 reference compounds. […] To validate this hypothesis, we exposed U2OS cells to compound 49 and evaluated the levels of p53 by Western blot. […] The exact mechanism by which the compounds elevate levels of p53 requires further investigation. However, it has previously been shown that the NuRD complex, of which RbAp48 is a core component, is able to deacetylate p53 and thereby modulate its stability. ^[26] The effect is mediated by the MTA family of proteins from which the compounds described here are derived. […]
The described assay follows closely the method described by Bray et al. Initially, 5 µl U2OS medium were added to each well of a 384 -well plate (PerkinElmer CellCarrier -384 Ultra). Subsequently, U2OS cell were seeded with a density of 1600 cells per well in 20 µl medium. The plate was incubated for 10 min at the ambient temperatu re, followed by an a dditional 4 h incubation (37 °C, 5 % CO2). Compound treatment was performed with the Echo 520 acoustic dispenser (Labcyte) at final concentrations of 10 µM, 3 µM or 1 µM. Incubation with compound was performed for 20 h (37 °C, 5 % CO2). Subsequently, mitoc hondria were stained with Mito Tracker Deep Red (Thermo Fisher Scientific, Cat. No. M22426). The Mito Tracker Deep Red stock solution (1 mM) was diluted to a final concentration of 100 nM in prewarmed medium. The medium was removed fr om the plate leaving 1 0 µl residual volume and 25 µl of the Mito Tracker solution were added to each well. 22 The plate was incubated for 30 min in darkness (37 °C, 5 % CO2). To fix the cells 7 µl of 18.5 % formaldehyde in PBS were added, resulting in a fi nal formaldehyde conce ntration of 3.7 %. Subsequently, the plate was incubated for another 20 min in darkness (RT) and washed three times with 70 µl of PBS. (Biotek Washer Elx405). Cells were permeabilized by addition of 25 µl 0.1 % Triton X -100 to each well, followed by 15 min incubation (RT) in darkness. The cells were washed three times with PBS leaving a final volume of 10 µl. To each well 25 µl of a staining solution were added, which contains 1 % BSA, 5 µl/mL Phalloidin (Thermo Fisher Scientific, A123 81), 25 µg/ml Concanav alin A (Thermo Fisher Scientific, Cat. […]
conjugate (Thermo Fisher Scientific, Cat. No. W11262) and […] SYTO 14 solution (Thermo Fisher Scientific, Cat. No. S7576). The plate is incubated for 30 min (RT) in darkness and washed three times with 70 µl PBS. After the final washing step the PBS was not aspirated. The plates were sealed and centrifuged for 1 min at 500 rpm.
The plates were prepare d in triplicates with shifted layouts to reduce plate effects and imaged using a Micro XL High-Content Screening System (Molecular Devices) in 5 channels (DAPI: Ex350 -400/ Em410- […]
The generated images were processed with the CellProfiler package (https://cellprofiler.org/, version 3.0.0) on a computing cluster of the Max Planck Society to extract 1716 cell features (parameters) per microscope site. The data was then further aggregated as medians per well (9 sites -> 1 well), then […]

A further experiment has as its system p53. Briefly: p53 expression level assay (western blot). It is filed as cell-based. The settings on record: U2OS cells, 10 µM, 24 h, p53 vs alpha tubulin, two biological replicates. The source says:
Encouraged by the promising results from the pulldown experiment, and in order to get insight into bioactivity and possible mode of action, we analyzed peptide 33 in a morphological cell painting assay. The cell painting assay is a target agnostic assay which determines a cells morphological profile after treatment with a compound of interest and compares it to the profiles of a set of reference compounds. ^[22] By identifying reference compounds with a similar profile a hypothesis of the compounds mode of action can be generated based on their annotated targets. ^[23] U2OS cells were treated with our compound and 579 parameters were analyzed. […] We therefore synthesized a variant modified with an N‐terminal TAT sequence to enhance its permeability (compound 49, see Table 1 and Supplemental Figure 4). ^[24] […] Applying compound 49 to the cell painting assay led to an induction of 5.9 % and the corresponding profile was compared to the set of 3000 reference compounds. […] To validate this hypothesis, we exposed U2OS cells to compound 49 and evaluated the levels of p53 by Western blot. […]
U2OS cells were incubated with 10 µM compound 49, 50 or DMSO (DMSO 0.5%) for 24 h followed by lysis for western blotting analysis. p53 ex pression was monitored using fluorescent antibody. Signal ration between p53 and loading control (alpha tubulin) was measured. […]

The mark [3] stands for this setting: Table 1, competitive FP, tracer peptide 1 1 nM, RbAp48 15 nM, 20 mM Tris-HCl, 150 mM NaCl, 0.01% Tween-20, pH 7.5, 30 min room temperature, lower limit set by 15 nM protein, read-out: IC50.

Where two headings read alike, the source gives them in different places. Starred links: 1 amine or outer side, 2 acyl side, 3 side chain; linkers in the order of their positions; H or OH if unused. Positions of bridges follow the written chain, without caps; N, C: chain ends. Residues, ends and D or L forms follow the SMILES beside them. *: point of attachment. TBMB = c1c(C[*:1])cc(C[*:3])cc1C[*:2]; X1 = [N-]=[N+]=NCCOCCOCCOCC(=O)* Where only a bound is given, the exact number is not on record here.

T1 sequence (Q09028 whole entry): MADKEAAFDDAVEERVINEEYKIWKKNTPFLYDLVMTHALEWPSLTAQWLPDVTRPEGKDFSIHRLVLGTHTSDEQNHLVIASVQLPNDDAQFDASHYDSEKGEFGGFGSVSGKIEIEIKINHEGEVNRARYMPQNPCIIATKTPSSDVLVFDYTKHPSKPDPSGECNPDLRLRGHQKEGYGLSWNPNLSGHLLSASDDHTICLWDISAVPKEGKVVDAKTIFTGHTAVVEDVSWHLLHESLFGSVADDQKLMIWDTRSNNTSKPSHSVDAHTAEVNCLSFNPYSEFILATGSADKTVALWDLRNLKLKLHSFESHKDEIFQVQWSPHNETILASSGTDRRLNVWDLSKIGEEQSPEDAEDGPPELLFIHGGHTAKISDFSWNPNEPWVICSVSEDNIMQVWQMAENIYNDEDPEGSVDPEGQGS

In the case of `C[C@H](NC(=O)[C@@H]1CSCc2cc3cc(c2)CSC[C@H](NC(=O)[C@H](CCCNC(=N)N)NC(=O)[C@H](CCCCN)NC(=O)[C@H]([C@@H](C)O)NC(=O)[C@@H](NC(=O)COCCOCCOCCN=[N+]=[N-])CSC3)C(=O)N[C@@H](C)C(=O)N[C@@H](CCCNC(=N)N)C(=O)N[C@@H](CCCNC(=N)N)C(=O)N2CCC[C@H]2C(=O)N[C@@H](Cc2ccc(O)cc2)C(=O)N[C@@H](CCCCN)C(=O)N2CCC[C@H]2C(=O)N1)C(N)=O` [Peptide 47] (X1-CTKRCARRPYKPCA-NH2; linker 1-5-13 via TBMB; N-terminus assumed), on RbAp48 [1], the “enrichment of RbAp48 in pull-down” value is “successfully able to enrich RbAp48”. In addition, the IC50 at RbAp48 [2] (setting [3]) stood at 13.9 ± 5.6 nM.
Take `C[C@@H]1NC(=O)[C@H](CCCNC(=N)N)NC(=O)[C@@H]2CCCN2C(=O)[C@@H](NC(=O)COCCOCCOCCN=[N+]=[N-])CSCc2cc3cc(c2)CSC[C@@H](C(=O)N[C@@H](CCCCN)C(N)=O)NC(=O)[C@H](CCCNC(=N)N)NC(=O)[C@@H]2CCCN2C(=O)[C@H](C)NC(=O)[C@H]([C@@H](C)O)NC(=O)[C@H](CCCCN)NC(=O)[C@H](Cc2ccc(O)cc2)NC(=O)[C@H](CCCNC(=N)N)NC(=O)[C@H](CSC3)NC1=O` [Peptide 48] (X1-CPRACRYKTAPRCK-NH2; linker 1-5-13 via TBMB; N-terminus assumed): the “enrichment of RbAp48 in pull-down” value on RbAp48 [1] is listed as “no interaction”. Besides, the IC50 on RbAp48 [2] (setting [3]) is more than 10000 nM; on RbAp48 [2] (competitive FP assay, read-out: IC50 / affinity), more than 10000 nM.
Turning to `C[C@H](NC(=O)[C@@H]1CSCc2cc3cc(c2)CSC[C@H](NC(=O)[C@H](CCCNC(=N)N)NC(=O)[C@H](CCCCN)NC(=O)[C@H]([C@@H](C)O)NC(=O)[C@@H](NC(=O)CNC(=O)[C@H](CCC(N)=O)NC(=O)[C@@H]2CCCN2C(=O)[C@H](CCCNC(=N)N)NC(=O)[C@H](CCCNC(=N)N)NC(=O)[C@H](CCCNC(=N)N)NC(=O)[C@H](CCC(N)=O)NC(=O)[C@H](CCCNC(=N)N)NC(=O)[C@H](CCCNC(=N)N)NC(=O)[C@H](CCCCN)NC(=O)[C@H](CCCCN)NC(=O)[C@H](CCCNC(=N)N)NC(=O)CN)CSC3)C(=O)N[C@@H](C)C(=O)N[C@@H](CCCNC(=N)N)C(=O)N[C@@H](CCCNC(=N)N)C(=O)N2CCC[C@H]2C(=O)N[C@@H](Cc2ccc(O)cc2)C(=O)N[C@@H](CCCCN)C(=O)N2CCC[C@H]2C(=O)N1)C(N)=O` [Peptide 49] (H-GRKKRRQRRRPQGCTKRCARRPYKPCA-NH2; linker 14-18-26 via TBMB), the induction in the experiment on U2OS cells is 5.9%. For the same compound, the “levels of p53” value with p53 is “increased”. Besides, the IC50 on RbAp48 [2] (setting [3]) was found to be 4.4 ± 1.4 nM. The “FP activity in words” value on RbAp48 [2] (competitive FP assay) is listed as “slightly more active than its parent compound 33”.
As to `N=C(N)NCCC[C@H](NC(=O)CN)C(=O)N[C@@H](CCCCN)C(=O)N[C@@H](CCCCN)C(=O)N[C@@H](CCCNC(=N)N)C(=O)N[C@@H](CCCNC(=N)N)C(=O)N[C@@H](CCC(N)=O)C(=O)N[C@@H](CCCNC(=N)N)C(=O)N[C@@H](CCCNC(=N)N)C(=O)N[C@@H](CCCNC(=N)N)C(=O)N1CCC[C@H]1C(=O)N[C@@H](CCC(N)=O)C(N)=O` [Peptide 50, reference compound], the “levels of p53” value in the experiment on p53 was “no increase”. The IC50 at RbAp48 [2] (setting [3]) is 1240 ± 358 nM. For the same compound, the “FP activity in words” value on RbAp48 [2] (competitive FP assay) was “weakly inhibit the interaction”.

The values are drawn from paper PMC7894522, “Structure Based Design of Bicyclic Peptide Inhibitors of RbAp48” (Angewandte Chemie (International Ed. in English), 2020).
